Source: paper PMC9440028, “Neurotensin analogs by fluoroglycosylation at N^ω-carbamoylated arginines for PET imaging of NTS1-positive tumors” (Scientific Reports, 2022)
Like-named read-outs stand apart in the source and are kept apart here.

Key:
hNTS1R = molecular target: T1, hNTS1R (Homo sapiens, UniProt P30989); assay: Radioligand competition binding with [^3H]UR-MK300 at intact HT-29 cells; settings: [^3H]UR-MK300 (Kd = […], c = 1 nM), 23 °C
T1 construct: at hNTS1R expressing intact human HT-29 colon carcinoma cells; endogenous in cells; host or cells: HT-29 human colon carcinoma cells (intact)
Method: Unspecific binding was subtracted from total binding to obtain specific binding. Data analysis was performed by plotting % specifically bound radioligand (100% = specifically bound radioligand in the absence of competitor) over log(concentration of competitor) followed by a four-parameter logistic fit (SigmaPlot 12.5, Systat Software). […] The Ki values from individual experiments were transformed to pKi values, followed by the calculation of mean pKi values ± SEM.

[1] = In vitro stability in human plasma/PBS (1:2 v/v) at 37 °C; format: in vitro ADME; settings: human blood plasma/PBS (1:2 v/v), read-out: % intact peptide in human plasma after the given incubation time; for remaining at 10 min, 100 µM: pH 7.4, 10 min; for remaining at 25 min, 100 µM: pH 7.4, 25 min; for remaining at 1 h, 100 µM: pH 7.4, 1 h; for remaining at 2 h, 100 µM: pH 7.4, 2 h; for remaining at 6 h, 100 µM: pH 7.4, 6 h; for remaining at 24 h, 100 µM: pH 7.4, 24 h; for remaining at 48 h, 100 µM: pH 7.4, 48 h
Method: The metabolic stabilities of 11–14, 16 and 18–21 (cf. Table 2) were investigated in human blood plasma/PBS (136.9 mM NaCl, 2.68 mM KCl, 5.62 mM Na2HPO4, 1.09 mM NaH2PO4 and 1.47 mM KH2PO4) pH 7.4 (1:2, v/v) according to a described procedure[13] with the following modifications: 5 mM stock solutions in EtOH/0.04% aq TFA (30:70 v/v) (11–13), MeCN/0.025% aq TFA (30:70 v/v) (14), MeCN/0.04% aq TFA (30:70 v/v) (16, 19 and 21) or EtOH/H2O (40:60 v/v) (18, 20) were used for the addition of the peptides to plasma/PBS (1:2 v/v). As the RP-HPLC purity of 1-Methyl-D-Trp (internal standard, IS) was < 95% (data not shown), the compound was purified by preparative HPLC to give a purity of > 99%. The concentration of the peptides in plasma/PBS (1:2 v/v) was 80 and 4 µM (recovery determination) or 100 µM (stability tests). The obtained recoveries and the recovery ratios (peptide/internal standard) are summarized in Supplementary Table S1. Data analysis was based on UV detection at 220 nm. Additionally, the stability of compound 21 was investigated in mouse plasma/PBS (1:2 v/v) using the same procedure as described above for human plasma. Mouse plasma was obtained by the collection of blood from anaesthetized mice via cardiac puncture using a syringe that was rinsed with sodium heparin (25,000 I.E., Ratiopharm, Ulm, Germany). The heparinized blood was transferred into a 2-mL reaction vessel, followed by centrifugation (1200 g, 4 °C, 10 min). The supernatants were pooled, centrifuged again (1200 g, 4 °C, 10 min), the plasma was aliquoted and stored at − 80 °C. The concentration of 21 in plasma/PBS (1:2 v/v) was 80 and 4 μM (recovery determination) or 100 μM (stability tests). The obtained recoveries and the recovery ratios (21/IS) are summarized in Supplementary Table S2. Data analysis was based on UV detection at 220 nm.

[2] = read-out: pKi ± SEM (converted)

T1 sequence (P30989 whole entry): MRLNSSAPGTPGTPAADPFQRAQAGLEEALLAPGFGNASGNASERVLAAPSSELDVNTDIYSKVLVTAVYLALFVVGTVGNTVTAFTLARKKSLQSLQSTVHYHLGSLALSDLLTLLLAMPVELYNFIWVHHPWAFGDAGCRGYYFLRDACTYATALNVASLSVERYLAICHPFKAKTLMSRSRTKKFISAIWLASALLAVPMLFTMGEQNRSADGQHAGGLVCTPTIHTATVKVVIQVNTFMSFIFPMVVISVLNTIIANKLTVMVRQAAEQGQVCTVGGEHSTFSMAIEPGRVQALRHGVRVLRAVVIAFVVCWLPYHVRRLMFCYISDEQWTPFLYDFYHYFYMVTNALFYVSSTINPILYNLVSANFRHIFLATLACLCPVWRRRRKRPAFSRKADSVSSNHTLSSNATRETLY

SMILES | Ki (hNTS1R; mean, read-out: Ki (converted)) | Ki (hNTS1R; [2]) | pKi ± SEM (hNTS1R) | remaining at 10 min, 100 µM [1] | remaining at 25 min, 100 µM [1] | remaining at 1 h, 100 µM [1] | remaining at 2 h, 100 µM [1] | Ki (hNTS1R; mean) | remaining at 6 h, 100 µM [1] | remaining at 24 h, 100 µM [1] | remaining at 48 h, 100 µM [1]
C#CCCCCNC(=O)NC(=N)NCCC[C@H](N)C(=O)N[C@@H](CCCNC(=N)N)C(=O)N1CCC[C@H]1C(=O)N[C@@H](Cc1ccc(O)cc1)C(=O)N[C@H](C(=O)N[C@@H](CC(C)C)C(=O)O)C(C)(C)C [Compound 7, H-(N^ω-5-hexynylaminocarbonyl)Arg-Arg-Pro-Tyr-2-tert-butyl-Gly-Leu-OH tris(hydrotrifluoroacetate)] | 4.6 nM | 4.37 nM |  |  |  |  |  |  |  |  | 
C#CCCCCNC(=O)NC(=N)NCCC[C@H](NC(=O)[C@@H](N)CCCNC(=N)N)C(=O)N1CCC[C@H]1C(=O)N[C@@H](Cc1ccc(O)cc1)C(=O)N[C@H](C(=O)N[C@@H](CC(C)C)C(=O)O)C(C)(C)C [Compound 8, H-Arg-(N^ω-5-hexynylaminocarbonyl)Arg-Pro-Tyr-2-tert-butyl-Gly-Leu-OH tris(hydrotrifluoroacetate)] | 9.4 nM |  | 8.03 ± 0.03 |  |  |  |  |  |  |  | 
C#CCCCCNC(=O)NC(=N)NCCC[C@H](NC(=O)[C@H](CCCNC(=N)N)NC)C(=O)N1CCC[C@H]1C(=O)N[C@@H](Cc1ccc(O)cc1)C(=O)N[C@H](C(=O)N[C@@H](CC(C)C)C(=O)O)C(C)(C)C [Compound 9, N^α-(N^α-methylarginyl)-N^ω-(5-hexynylaminocarbonyl)Arg-Pro-Tyr-2-tert-butyl-Gly-Leu-OH tris(hydrotrifluoroacetate)] | 7.7 nM | 7.41 nM |  |  |  |  |  |  |  |  | 
CC(C)C[C@H](NC(=O)[C@@H](NC(=O)[C@H](Cc1ccc(O)cc1)NC(=O)[C@@H]1CCCN1C(=O)[C@H](CCCNC(=N)N)NC(=O)[C@@H](N)CCCNC(=N)NC(=O)NCCCCc1cn([C@@H]2O[C@H](CF)[C@@H](O)[C@H](O)[C@H]2O)nn1)C(C)(C)C)C(=O)O [Compound 11, H-{N^ω-[N-(4-{1-[6-deoxy-6-fluoro-β-D-glucopyranosyl]-1H-1,2,3-triazol-4-yl}butyl)aminocarbonyl]}Arg-Arg-Pro-Tyr-2-tert-butyl-Gly-Leu-OH tris(hydrotrifluoroacetate)] | 4.6 nM |  |  | 72 ± 1% | 24 ± 1% | 1.1 ± 0.1% | < 1% |  |  |  | 
CC(C)C[C@H](NC(=O)[C@@H](NC(=O)[C@H](Cc1ccc(O)cc1)NC(=O)[C@@H]1CCCN1C(=O)[C@H](CCCNC(=N)NC(=O)NCCCCc1cn([C@@H]2O[C@H](CF)[C@@H](O)[C@H](O)[C@H]2O)nn1)NC(=O)[C@@H](N)CCCNC(=N)N)C(C)(C)C)C(=O)O [Compound 12, H-Arg-{N^ω-[N-(4-{1-[6-deoxy-6-fluoro-β-D-glucopyranosyl]-1H-1,2,3-triazol-4-yl}butyl)aminocarbonyl]}Arg-Pro-Tyr-2-tert-butyl-Gly-Leu-OH tris(hydrotrifluoroacetate)] | 5.8 nM | 5.5 nM |  | 86 ± 1% | 28 ± 1% | < 1% | < 1% |  |  |  | 
CN[C@@H](CCCNC(=N)N)C(=O)N[C@@H](CCCNC(=N)NC(=O)NCCCCc1cn([C@@H]2O[C@H](CF)[C@@H](O)[C@H](O)[C@H]2O)nn1)C(=O)N1CCC[C@H]1C(=O)N[C@@H](Cc1ccc(O)cc1)C(=O)N[C@H](C(=O)N[C@@H](CC(C)C)C(=O)O)C(C)(C)C [Compound 13, N^α-(N^α-methylarginyl)-{N^ω-[N-(4-{1-[6-deoxy-6-fluoro-β-D-glucopyranosyl]-1H-1,2,3-triazol-4-yl}butyl)aminocarbonyl]}Arg-Pro-Tyr-2-tert-butyl-Gly-Leu-OH tris(hydrotrifluoroacetate)] | 6.2 nM |  |  |  |  |  | > 99% | one-digit nanomolar range | > 99% | > 99% | 96 ± 1%
CC(C)C[C@H](NC(=O)[C@@H](NC(=O)[C@H](Cc1ccc(O)cc1)NC(=O)[C@@H]1CCCN1C(=O)[C@H](CCCNC(=N)N)NC(=O)[C@@H](N)CCCNC(=N)NC(=O)NCCCCN)C(C)(C)C)C(=O)O [Compound 14, N^ω-[(4-aminobutyl)aminocarbonyl]Arg-Arg-Pro-Tyr-2-tert-butyl-Gly-Leu-OH tetrakis(hydrotrifluoroacetate)] | 2.2 nM | 2.04 nM |  | 50 ± 2% |  | < 1% |  |  | < 1% | < 1% | 
CN[C@@H](CCCNC(=N)NC(=O)NCCCCN)C(=O)N[C@@H](CCCNC(=N)N)C(=O)N1CCC[C@H]1C(=O)N[C@@H](Cc1ccc(O)cc1)C(=O)N[C@H](C(=O)N[C@@H](CC(C)C)C(=O)O)C(C)(C)C [Compound 16, N^α-methyl-N^ω-[(4-aminobutyl)aminocarbonyl]Arg-Arg-Pro-Tyr-2-tert-butyl-Gly-Leu-OH tetrakis(hydrotrifluoroacetate)] | 2.8 nM |  |  |  |  | > 99% |  |  | > 99% | > 99% | > 99%
C#CCCC(=O)NCCCCNC(=O)NC(=N)NCCC[C@H](N)C(=O)N[C@@H](CCCNC(=N)N)C(=O)N1CCC[C@H]1C(=O)N[C@@H](Cc1ccc(O)cc1)C(=O)N[C@H](C(=O)N[C@@H](CC(C)C)C(=O)O)C(C)(C)C [Compound 18, H-{N^ω-[N-(4-pent-4-ynoylaminobutyl)aminocarbonyl]}Arg-Arg-Pro-Tyr-2-tert-butyl-Gly-Leu-OH tris(hydrotrifluoroacetate)] | 4.4 nM | 4.27 nM |  | 59 ± 1% |  | < 1% |  |  | < 1% | < 1% | 
C#CCCC(=O)NCCCCNC(=O)NC(=N)NCCC[C@H](NC)C(=O)N[C@@H](CCCNC(=N)N)C(=O)N1CCC[C@H]1C(=O)N[C@@H](Cc1ccc(O)cc1)C(=O)N[C@H](C(=O)N[C@@H](CC(C)C)C(=O)O)C(C)(C)C [Compound 19, N^α-methyl-{N^ω-[N-(4-pent-4-ynoylaminobutyl)aminocarbonyl]}Arg-Arg-Pro-Tyr-2-tert-butyl-Gly-Leu-OH tris(hydrotrifluoroacetate)] | 7.7 nM |  |  |  |  | > 99% |  |  | > 99% | > 99% | 99 ± 1%
CC(C)C[C@H](NC(=O)[C@@H](NC(=O)[C@H](Cc1ccc(O)cc1)NC(=O)[C@@H]1CCCN1C(=O)[C@H](CCCNC(=N)N)NC(=O)[C@@H](N)CCCNC(=N)NC(=O)NCCCCNC(=O)CCc1cn([C@@H]2O[C@H](CF)[C@@H](O)[C@H](O)[C@H]2O)nn1)C(C)(C)C)C(=O)O [Compound 20, H-(N^ω-{N-[4-(3-{1-[6-deoxy-6-fluoro-β-D-glucopyranosyl]-1H-1,2,3-triazol-4-yl}propanoyl)aminobutyl]aminocarbonyl})Arg-Arg-Pro-Tyr-2-tert-butyl-Gly-Leu-OH tris(hydrotrifluoroacetate)] | 2.5 nM |  |  | 78 ± 1% |  | 6.4 ± 0.1% |  |  |  | < 1% | 
